Measured values published in patent publication US10576151B2, “Ciclopirox for use in modulation of glucose homeostasis” (UNIVERSITY OF SOUTH CAROLINA, priority 2015, dated 2020).

Tested on: BiP, GRP94 and CHOP
Test: Western blot of ER stress markers in islets in culture
Format: cell-based, mouse
Protocol: Western Blotting. The mouse islets were treated with CPX 20 μM for 24 h and lysed in RIPA buffer [50 mM Tris, pH 7.2; 150 mM NaCl; 1% sodium deoxycholate; 0.1% SDS; 1% Triton-X 100; 10 mM NaF; 1 mM Na3VO4; protease inhibitor cocktail (1:1000, Sigma, St. Louis, Mo.)] and were subjected to immunoblot analysis by standard methods. Proteins were resolved on a 10% SDS-PAGE and transferred to a nitrocellulose membrane (Bio-Rad, Hercules, Calif.). Membranes were probed overnight with GADD153 (F-168), sc-575 from Santa Cruz Biotechnology (1:50); p21 (F-5), sc-6246 from Santa Cruz Biotechnology (1:200); actin, clone C4 MAB1501 from Millipore (Billerica, Mass., USA) (1:2000); BiP antibody (cat. no. 3183) from Cell Signaling (Danvers, Mass., USA) (1:1000); GRP94 antibody (H-212), sc-11402 from Santa Cruz Biotechnology (1:500); insulin rabbit polyclonal H-86, sc-9168 from Santa Cruz Biotechnology (1:500) antibodies followed by incubation with horseradish peroxidase-conjugated (HRP) anti-mouse (1:10000), goat anti-rabbit IgG (1:10000, Santa Cruz biotechnology Inc., Santa Cruz, Calif., USA) for 1 hr. After incubation with enhanced chemiluminescence reagents (Santa Cruz biotechnology Inc.), membranes were analyzed using an Image J software for Windows.
In order to understand better how CPX operates in β cells, it was tested to determine if it affected the efficiency by which insulin is produced following glucose stimulation. […] In view of the antidiabetic activity of CPX in vivo, the inhibition of insulin release appears contradictory. […]
While modulation of insulin release by CPX constitutes a challenging mechanism by which CPX may affect ER stress, how CPX regulates insulin expression remains obscure. […] To test this hypothesis, islets were exposed to iron citrate, alone or combined with CPX, and the levels were recorded of chaperones BiP, GRP94 and CHOP, as well as of insulin.

With Cc1cc(C2CCCCC2)n(O)c(=O)c1 [CPX, 6-cyclohexyl-1-hydroxy-4-methylpyridin-2(1H)-one] the “ER stress induction (BiP, GRP94, CHOP)” value (islets, iron citrate with concomitant CPX (FIG. 12A)) was “compromised the effects of iron citrate” and the “levels of BiP, GRP94 and CHOP” value (wt islets, high glucose with CPX (FIG. 11)) was “alleviated the levels of BiP, GRP94 and CHOP”.
